Measurements reported in US20240215905A1, “WOUND DRESSING” (5D HEALTH PROTECTION GROUP LTD, priority 2021, published 2024).

Legend:
Pseudomonas = experiment: Bacterial proliferation assay (Colony Forming Units) with added silver; type: cell-based; conditions: for added Ag^+ concentration at which antibacterial efficacy is apparent: 0.3 ppm is the lowest concentration measured (range 0.3 to 300 ppm)
Method: To assess the antibacterial efficacy of the silver, and to correlate this with the sensor response, bacterial proliferation assays were performed on MHB2, PBS, NaNO3 and SWF solutions with added silver at concentrations between 0.3 to 300 ppm.

[1] = Optical density measurements indicating AgCl precipitates/aggregates in solution; type: physicochemical; conditions: no bacteria present
Excerpt: Optical density measurements can be used to indicate the presence of AgCl precipitates/aggregates in solution. […] No bacteria where present for the measurements.

[Ag+] [Ag^+, silver ions]
added Ag^+ concentration at which antibacterial efficacy is apparent (Pseudomonas; NaNO3 solution): ≤ 0.3 ppm
added Ag^+ concentration at which antibacterial efficacy is apparent (Pseudomonas; PBS solution): ≤ 0.3 ppm
added Ag^+ concentration at which antibacterial efficacy is seen (Pseudomonas; SWF (simulated wound fluid, 33 g/L BSA) solution): ≥ 30 ppm
added Ag^+ concentration above which AgCl precipitation is seen (optical density) ([1]; PBS): above 1 ppm
added Ag^+ concentration above which AgCl precipitation is seen (optical density) ([1]; SWF): above 30 ppm
